{
  "source": "patent US20110020494A1",
  "about": "“GROWTH MEDIUM FOR LACTIC ACID BACTERIA” (priority 2007, published 2011)",
  "system": "mesophilic culture of Lactococcus",
  "assay": "Growth of Lactococcus with formate and purine supplementation: pH of inoculated milk over time",
  "assay_type": "cell-based",
  "conditions": "milk 1% fat, 32° C., inoculation 0.022%, IMP 10 ppm, NaF 5 ppm",
  "experimental": "In these experiments, the growth of Lactococcus in the presence of supplemented formate and purine was investigated. Equal amounts of milk (pasteurized milk w/1% fat) were added to four 1 liter Pyrex bottles. The bottles were placed in the water bath at 32° C.\nAll bottles were inoculated with a mesophilic culture of Lactococcus (0.022%). When the milk reached 32° C., three of the four bottles were supplemented with Na formate and/or disodium-5′-inosinate (IMP), as shown below.\nThe initial pH of the milk was recorded. The pH in the bottles was measured every hour for the first two hours and then every half hour until a pH of around 4.6 was reached.\nThe pH of each of the bottles, as a function of time, is shown below, and graphed in FIG. 1.",
  "data": [
    {"molecule": "O=C[O-].[Na+]", "note": "[NaF, sodium formate]", "values": [
      {"measurement": "pH", "setting": "time 0 hours (initial pH)", "result": 6.54},
      {"measurement": "pH", "setting": "time 1 hour", "result": 6.48},
      {"measurement": "pH", "setting": "time 2 hours", "result": 6.29},
      {"measurement": "pH", "setting": "time 2.6 hours", "result": 6.03},
      {"measurement": "pH", "setting": "time 3 hours", "result": 5.79},
      {"measurement": "pH", "setting": "time 3.5 hours", "result": 5.51},
      {"measurement": "pH", "setting": "time 4 hours", "result": 5.26},
      {"measurement": "pH", "setting": "time 5.1 hours", "result": 4.66},
      {"measurement": "pH", "setting": "time 5.6 hours", "result": 4.54}
    ]},
    {"molecule": "disodium-5′-inosinate [IMP]", "values": [
      {"measurement": "pH", "setting": "time 0 hours (initial pH)", "result": 6.54},
      {"measurement": "pH", "setting": "time 1 hour", "result": 6.48},
      {"measurement": "pH", "setting": "time 2 hours", "result": 6.27},
      {"measurement": "pH", "setting": "time 2.6 hours", "result": 5.98},
      {"measurement": "pH", "setting": "time 3 hours", "result": 5.73},
      {"measurement": "pH", "setting": "time 3.5 hours", "result": 5.42},
      {"measurement": "pH", "setting": "time 4 hours", "result": 5.17},
      {"measurement": "pH", "setting": "time 5.1 hours", "result": 4.6},
      {"measurement": "pH", "setting": "time 5.6 hours", "result": 4.5}
    ]}
  ]
}
